Read-outs that look alike come from different tables or passages of the source.
Assays:
[1] = test system: catechol O-methyltransferase (COMT); design: method as in PMID 15755652, doi:10.1007/s40495-018-0157-y; settings: cited from earlier work
[2] = test system: catechol O-methyltransferase (COMT); design: method as in PMID 15755652, doi:10.1007/s40495-018-0157-y; settings: cited from earlier work; remark: listed apart in the source
[3] = test system: susceptible isolate of H. contortus, exsheathed L3 larvae; assay: Larval motility assay (LMA), Worminator; format: cell-based, Haemonchus contortus; settings: for anthelmintic activity in LMA: first round, up to 125 μM, any time point
Source text: The H. contortus isolates used were TxPh-2011-S (Texas A&M University, USA) and UGA MDR 2020 (University of Georgia Athens, USA). TxPh-2011-S (Texas A&M University, USA) was originally isolated from Pronghorn antelope in West Texas in 2011 and is fully drug susceptible, phenotypically determined by the DrenchRite larval development assay (LDA; Microbial Screening Technologies, Kemps Creek, Australia). To establish this as a laboratory isolate, it was initially passaged in goats at Texas A&M University and then at The University of Georgia using both goats and sheep, and it is currently maintained in lambs at Louisiana State University. A nemabiome assay ([69]) was conducted at the University of Calgary to confirm that the isolate is 100% H. contortus. The UGA MDR 2020 (University of Georgia Athens, USA) isolate is resistant to ivermectin, benzimidazoles, levamisole, and moxidectin, as determined by the DrenchRite LDA. To establish this as a laboratory isolate, feces collected from a sheep farm in Georgia with known history of multiple anthelmintic resistance were cultured. Two donor goats were infected with the larvae recovered, which were morphologically ([70]) identified as 89% H. contortus. A fecal egg count reduction test (FECRT) was then performed in the infected goats. First, a combination treatment with albendazole at 15 mg/kg and ivermectin at 0.4 mg/kg was performed, followed by a treatment with levamisole at 12 mg/kg. Later, and to confirm resistance to moxidectin, another treatment was administered using a dose of 0.4 mg/kg of moxidectin. Posttreatment feces were recovered, coprocultures were established, and L3 larvae were identified as 100% H. contortus. Resistance to all drugs was subsequently confirmed using a DrenchRite assay.
For LMAs, the first phase testing using compounds NSC133100 and NSC177383 was done using the Worminator system in parallel with the LDA. Initial stock solutions of 12.5 mM were prepared for each compound using 100% DMSO as a solvent. Initial stock solutions (25 μL) were then diluted in 475 μL of culture media to yield working stock solutions of 625.00, 156.30, 39.10, 9.80, 2.40, 0.60, 0.20, 0.04, and 0.00 μM in 5% DMSO for each drug. In plate, 200 μL of working stock solutions were then diluted in 800 μL of culture media, yielding concentrations of 125.00, 31.25, 7.81, 1.95, 0.49, 0.12, and 0.00 μM in 1% DMSO. For the second phase of testing, compounds showing anthelmintic activity with the LDA were tested in a second round at higher concentrations than in the first phase of testing. Initial stocks of 50 mM were prepared for compounds NSC133100, NSC177383, NSC145612, and NSC56410 using 100% DMSO as a solvent. Initial stock solutions (25-μL portions) were then diluted in 475 μL of culture media consisting of 65% Lauria-Bertani (LB) (Thermo Fisher Scientific, Branchburg, NJ), 25% NCTC (Sigma-Aldrich), 10% fetal bovine serum (Atlanta Biologicals, Flowery Branch, GA), Pen/Strep (Sigma-Aldrich) at a final concentration of […], and amphotericin B (Sigma-Aldrich) at a final concentration of […]. The working stock solutions yielded concentrations of 2,500.00, 625.00, 156.30, 39.10, 9.80, 2.40, and 0.00 μM in 5% DMSO for each compound. In each well in the plate, 200 μL of working stock solutions were then diluted in 800 μL of culture media, yielding final concentrations of 500.00, 125.00, 31.30, 7.81, 1.95, 0.49, and 0.00 μM in 1% DMSO.
For the motility assays, 24-well plates with inserts were used (Costar, catalog no. 3379; Corning, Inc., Corning, NY). Portions (640 μL) of culture media were added to each well, and approximately 50 exsheathed larvae contained in 160 μL of culture media in each insert. Once pretreatment readings were taken, 160 μL of the drug solution was added to the well, and another 40 μL was added to the insert, reaching the final concentrations described in the protocol above. All concentrations were tested in triplicate. […]

O=c1c(O)cccc2cc(O)c(O)c(O)c12 [NSC35676, purpurogallin]
inhibition of COMT catalytic activity [1]: inhibit the catalytic activity
inhibition of COMT catalytic activity [2]: inhibit the catalytic activity

CO[C@H]1/C=C/O[C@@]2(C)Oc3c(C)c(O)c4c(O)c(cc(O)c4c3C2=O)NC(=O)/C(C)=C\C=C\[C@H](C)[C@H](O)[C@@H](C)[C@@H](O)[C@@H](C)[C@H](OC(C)=O)[C@@H]1C [NSC133100]
Percent inhibition of larval motility ([3]; 0.12 µM, 1 hour): -7.4%
Percent inhibition of larval motility ([3]; 0.12 µM, 4 hours): 14.9%
Percent inhibition of larval motility ([3]; 0.12 µM, 24 hours): 22.9%
Percent inhibition of larval motility ([3]; 0.12 µM, 48 hours): 8.7%
Percent inhibition of larval motility ([3]; 0.12 µM, 72 hours): 26.1%
Percent inhibition of larval motility ([3]; 0.12 µM, 96 hours): 7.4%
Percent inhibition of larval motility ([3]; 0.12 µM, Initial): -93.9%
Percent inhibition of larval motility ([3]; 0.49 µM, 1 hour): -29.1%
Percent inhibition of larval motility ([3]; 0.49 µM, 4 hours): 4.3%
Percent inhibition of larval motility ([3]; 0.49 µM, 24 hours): 8.0%
Percent inhibition of larval motility ([3]; 0.49 µM, 48 hours): -9.5%
Percent inhibition of larval motility ([3]; 0.49 µM, 72 hours): -14.9%
Percent inhibition of larval motility ([3]; 0.49 µM, 96 hours): -9.0%
Percent inhibition of larval motility ([3]; 0.49 µM, Initial): -118.5%
Percent inhibition of larval motility ([3]; 1.95 µM, 1 hour): -57.6%
Percent inhibition of larval motility ([3]; 1.95 µM, 4 hours): -16.4%
Percent inhibition of larval motility ([3]; 1.95 µM, 24 hours): -8.4%
Percent inhibition of larval motility ([3]; 1.95 µM, 48 hours): -37.5%
Percent inhibition of larval motility ([3]; 1.95 µM, 72 hours): -49.0%
Percent inhibition of larval motility ([3]; 1.95 µM, 96 hours): -50.7%
Percent inhibition of larval motility ([3]; 1.95 µM, Initial): -159.9%
Percent inhibition of larval motility ([3]; 7.81 µM, 1 hour): 27.5%
Percent inhibition of larval motility ([3]; 7.81 µM, 4 hours): 9.1%
Percent inhibition of larval motility ([3]; 7.81 µM, 24 hours): 25.3%
Percent inhibition of larval motility ([3]; 7.81 µM, 48 hours): 35.3%
Percent inhibition of larval motility ([3]; 7.81 µM, 72 hours): 32.1%
Percent inhibition of larval motility ([3]; 7.81 µM, 96 hours): 38.0%
Percent inhibition of larval motility ([3]; 7.81 µM, Initial): -74.0%
Percent inhibition of larval motility ([3]; 31.25 µM, 1 hour): 10.6%
Percent inhibition of larval motility ([3]; 31.25 µM, 4 hours): 7.1%
Percent inhibition of larval motility ([3]; 31.25 µM, 24 hours): 9.0%
Percent inhibition of larval motility ([3]; 31.25 µM, 48 hours): 35.2%
Percent inhibition of larval motility ([3]; 31.25 µM, 72 hours): 19.9%
Percent inhibition of larval motility ([3]; 31.25 µM, 96 hours): 28.7%
Percent inhibition of larval motility ([3]; 31.25 µM, Initial): -64.8%
Percent inhibition of larval motility ([3]; 125 µM, 1 hour): 4.3%
Percent inhibition of larval motility ([3]; 125 µM, 4 hours): -12.0%
Percent inhibition of larval motility ([3]; 125 µM, 24 hours): 3.2%
Percent inhibition of larval motility ([3]; 125 µM, 48 hours): 23.2%
Percent inhibition of larval motility ([3]; 125 µM, 72 hours): 3.1%
Percent inhibition of larval motility ([3]; 125 µM, 96 hours): 19.2%
Percent inhibition of larval motility ([3]; 125 µM, Initial): -8.9%
anthelmintic activity in LMA [3]: no anthelmintic activity

CO[C@@H]1/C=C/O[C@@]2(C)Oc3c(C)c(O)c4c(c3C2=O)C(=N[C@@H]2CC[C@@H](O)O[C@H]2C)C=C(NC(=O)/C(C)=C\C(=O)[C@@H]2C[C@@H]2[C@H](O)[C@@H](C)[C@@H](O)[C@@H](C)[C@H](OC(C)=O)[C@@H]1C)C4=O [NSC177383]
Percent inhibition of larval motility ([3]; 0.12 µM, 1 hour): 29.41%
Percent inhibition of larval motility ([3]; 0.12 µM, 4 hours): 4.95%
Percent inhibition of larval motility ([3]; 0.12 µM, 24 hours): 28.20%
Percent inhibition of larval motility ([3]; 0.12 µM, 48 hours): 2.41%
Percent inhibition of larval motility ([3]; 0.12 µM, 72 hours): 4.89%
Percent inhibition of larval motility ([3]; 0.12 µM, 96 hours): -16.32%
Percent inhibition of larval motility ([3]; 0.12 µM, Initial): -1.62%
Percent inhibition of larval motility ([3]; 0.49 µM, 1 hour): 25.94%
Percent inhibition of larval motility ([3]; 0.49 µM, 4 hours): 18.27%
Percent inhibition of larval motility ([3]; 0.49 µM, 24 hours): 23.09%
Percent inhibition of larval motility ([3]; 0.49 µM, 48 hours): 12.98%
Percent inhibition of larval motility ([3]; 0.49 µM, 72 hours): -5.94%
Percent inhibition of larval motility ([3]; 0.49 µM, 96 hours): -72.91%
Percent inhibition of larval motility ([3]; 0.49 µM, Initial): -11.69%
Percent inhibition of larval motility ([3]; 1.95 µM, 1 hour): 30.56%
Percent inhibition of larval motility ([3]; 1.95 µM, 4 hours): 33.37%
Percent inhibition of larval motility ([3]; 1.95 µM, 24 hours): 18.80%
Percent inhibition of larval motility ([3]; 1.95 µM, 48 hours): 14.16%
Percent inhibition of larval motility ([3]; 1.95 µM, 72 hours): -3.70%
Percent inhibition of larval motility ([3]; 1.95 µM, 96 hours): -23.78%
Percent inhibition of larval motility ([3]; 1.95 µM, Initial): 21.82%
Percent inhibition of larval motility ([3]; 7.81 µM, 1 hour): 26.94%
Percent inhibition of larval motility ([3]; 7.81 µM, 4 hours): 26.72%
Percent inhibition of larval motility ([3]; 7.81 µM, 24 hours): 22.63%
Percent inhibition of larval motility ([3]; 7.81 µM, 48 hours): 34.44%
Percent inhibition of larval motility ([3]; 7.81 µM, 72 hours): 14.00%
Percent inhibition of larval motility ([3]; 7.81 µM, 96 hours): -53.76%
Percent inhibition of larval motility ([3]; 7.81 µM, Initial): 22.03%
Percent inhibition of larval motility ([3]; 31.25 µM, 1 hour): 14.47%
Percent inhibition of larval motility ([3]; 31.25 µM, 4 hours): 38.95%
Percent inhibition of larval motility ([3]; 31.25 µM, 24 hours): 18.83%
Percent inhibition of larval motility ([3]; 31.25 µM, 48 hours): 26.89%
Percent inhibition of larval motility ([3]; 31.25 µM, 72 hours): 16.58%
Percent inhibition of larval motility ([3]; 31.25 µM, 96 hours): -23.43%
Percent inhibition of larval motility ([3]; 31.25 µM, Initial): 28.34%
Percent inhibition of larval motility ([3]; 125 µM, 1 hour): 42.55%
Percent inhibition of larval motility ([3]; 125 µM, 4 hours): 10.81%
Percent inhibition of larval motility ([3]; 125 µM, 24 hours): 16.94%
Percent inhibition of larval motility ([3]; 125 µM, 48 hours): 42.97%
Percent inhibition of larval motility ([3]; 125 µM, 72 hours): 27.79%
Percent inhibition of larval motility ([3]; 125 µM, 96 hours): 41.45%
Percent inhibition of larval motility ([3]; 125 µM, Initial): 22.02%
anthelmintic activity in LMA [3]: no anthelmintic activity
